Source: paper PMC10539439 (Pharmacological Reports, 2023)
Several values for one entry are separate records, joined by “and”; a condition that tells them apart may be missing. Identical values can stand only once.

Key:
[1] = Obesity induced with a high-fat diet: body weight; type: in vivo, rat; details: for effect on body weight (in words): vs obese control; for body weight of rat in g in particular day / change of body weight: hight-fat diet; for change of body weight: individual rats
Experimental: The experiments were carried out on male Wistar rats ([…]). Initial body weight was: 140–160 g obesity model or 190–220 g rats in which the obesity model was not induced. The animals were housed in pairs in plastic cages in constant temperature facilities exposed to a light–dark cycle; water and food were available ad libitum. The control and experimental groups consisted of six-to-eight animals each. All experiments were carried out according to the guidelines of the Jagiellonian University Animal Use and Care Committee and were approved for realization (Permissions No. 54/2012 and No. 128/2017).
Male Wistar rats were housed in pairs and fed a high-fat diet consisting of a 40% fat blend (Labofeed B with 40% lard, Morawski, Manufacturer Feed, Poland) for 14 weeks, with water available ad libitum. Control rats were fed a standard diet (Labofeed B, Morawski Manufacturer Feed, Poland). After 10 weeks, rats with obesity-induced via their diet were randomly divided into three equal groups that had the same mean body weight and were treated ip with test compounds at doses of 2 or 5 mg/kg b.w./day (high-fat diet + 4OHGuanabenz) or control group: vehicle–water 0.3 ml/kg (high-fat diet + vehicle = obesity control group) once a day in the morning between 9:00 AM and 10:00 AM for 25 days. Control rats were maintained on a standard diet, with ip administration of vehicle – water (standard diet + vehicle = control group).
The high-fat diet contained 550 kcal and the standard diet 280 kcal per 100 g.

[2] = Core body temperature of obese rats (implanted logger); type: in vivo, rat; details: for temperature after administration: hight-fat diet, 5mg/kg, individual rats 1-6
Experimental: Animals with induced obesity (two more groups) were subcutaneously implanted with a DST micro-HRT heart rate logger (Star-Oddi, Island), which simultaneously measured long-term core temperature. Under general anesthesia (thiopental, 70 mg/kg, ip), the loggers were inserted under the skin in the groin area and sutured with a surgical thread. Forty-eight hours later, the baseline temperature was measured, and at 9:30 AM, 4-OH-Guanabenz was administered ip at a dose of 5 mg/kg b.w. The first measurement was recorded 30 min after the administration of the test compound, and then, the temperature was recorded every hour. After 24 h, the loggers were removed, the temperature data were read, and Mercury software (Star-Oddi Mercury Data Logger PC Software, Iceland) was used to collect and analyze the information obtained. Using this technology, measurements are made without the direct intervention of the researcher; therefore, there is no disturbance in the readings evoked by stress in the animals.

[3] = 5 mg/kg b.w., i.p.; cited from earlier work
[4] = 5 mg/kg b.w., i.p.; cited from earlier work; remark: listed apart in the source
TAAR1 = target: T1, TAAR1 (Homo sapiens, UniProt Q96RJ0); set-up: method as in PMID 21525407; details: summary table; cited from earlier work
T1 sequence (Q96RJ0 1-339): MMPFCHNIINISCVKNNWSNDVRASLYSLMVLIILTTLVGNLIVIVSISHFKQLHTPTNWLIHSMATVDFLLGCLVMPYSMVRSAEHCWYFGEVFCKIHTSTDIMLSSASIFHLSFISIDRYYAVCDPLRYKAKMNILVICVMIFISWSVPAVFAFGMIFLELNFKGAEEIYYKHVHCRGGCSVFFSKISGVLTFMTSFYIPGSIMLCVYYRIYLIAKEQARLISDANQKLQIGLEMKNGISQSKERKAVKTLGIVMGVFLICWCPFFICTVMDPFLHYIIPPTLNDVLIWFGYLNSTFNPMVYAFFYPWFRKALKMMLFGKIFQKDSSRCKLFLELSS

Cl.N=C(N)NN=Cc1c(Cl)cc(O)cc1Cl [4-OH-Guanabenz, 2-[(2,6-Dichloro-4-hydroxyphenyl)methylene]hydrazinecarboximidamide Hydrochloride]
effect on body weight (in words) ([1]; high-fat diet rats, 2 mg/kg b.w. ip, 25 days): did not cause weight loss, but significantly reduced weight gain
weight loss compared to the baseline weight before treatment ([1]; high-fat diet rats, 5 mg/kg b.w. ip once a day, 25 days): approximately 14.8%
effect on body weight (in words) ([1]; high-fat diet rats, 5 mg/kg b.w. ip, 25 days): significant decrease in body weight
body weight of rat in g in particular day ([1]; 2mg/kg, day 1, individual rats, 2 mg/kg): 405 g (3×) and 415 g and 410 g (2×)
body weight of rat in g in particular day ([1]; 2mg/kg, day 3, individual rats, 2 mg/kg): 405 g (2×) and 410 g and 414 g (2×) and 406 g
body weight of rat in g in particular day ([1]; 2mg/kg, day 5, individual rats, 2 mg/kg): 409 g (2×) and 411 g and 413 g (2×) and 415 g
body weight of rat in g in particular day ([1]; 2mg/kg, day 7, individual rats, 2 mg/kg): 408 g (2×) and 414 g and 412 g (2×) and 416 g
body weight of rat in g in particular day ([1]; 2mg/kg, day 9, individual rats, 2 mg/kg): 406 g (2×) and 414 g and 415 g (2×) and 422 g
body weight of rat in g in particular day ([1]; 2mg/kg, day 11, individual rats, 2 mg/kg): 412 g (2×) and 413 g and 417 g (2×) and 423 g
body weight of rat in g in particular day ([1]; 2mg/kg, day 13, individual rats, 2 mg/kg): 409 g (2×) and 418 g and 414 g (2×) and 425 g
body weight of rat in g in particular day ([1]; 2mg/kg, day 15, individual rats, 2 mg/kg): 410 g (2×) and 422 g and 401 g (2×) and 428 g
body weight of rat in g in particular day ([1]; 2mg/kg, day 17, individual rats, 2 mg/kg): 412 g (2×) and 422 g and 403 g (2×) and 430 g
body weight of rat in g in particular day ([1]; 2mg/kg, day 19, individual rats, 2 mg/kg): 412 g (2×) and 424 g and 407 g (2×) and 433 g
body weight of rat in g in particular day ([1]; 2mg/kg, day 21, individual rats, 2 mg/kg): 415 g (2×) and 429 g and 412 g (2×) and 434 g
body weight of rat in g in particular day ([1]; 2mg/kg, day 23, individual rats, 2 mg/kg): 408 g (2×) and 434 g and 415 g (2×) and 435 g
body weight of rat in g in particular day ([1]; 2mg/kg, day 25, individual rats, 2 mg/kg): 405 g (2×) and 432 g and 415 g (2×) and 439 g
change of body weight ([1]; 2mg/kg): 34 g/25days and 5 g/25days and 0 g/25days and 17 g/25days
body weight of rat in g in particular day ([1]; 5mg/kg, day 1, individual rats, 5 mg/kg): 378 g and 415 g and 418 g and 409 g and 381 g and 457 g
body weight of rat in g in particular day ([1]; 5mg/kg, day 3, individual rats, 5 mg/kg): 367 g and 412 g and 410 g and 387 g and 366 g and 443 g
body weight of rat in g in particular day ([1]; 5mg/kg, day 5, individual rats, 5 mg/kg): 358 g and 396 g and 405 g and 374 g and 360 g and 427 g
body weight of rat in g in particular day ([1]; 5mg/kg, day 7, individual rats, 5 mg/kg): 344 g and 387 g and 385 g and 364 g and 347 g and 411 g
body weight of rat in g in particular day ([1]; 5mg/kg, day 9, individual rats, 5 mg/kg): 339 g and 377 g and 376 g and 357 g and 340 g and 394 g
body weight of rat in g in particular day ([1]; 5mg/kg, day 11, individual rats, 5 mg/kg): 335 g and 372 g and 373 g and 350 g and 340 g and 388 g
body weight of rat in g in particular day ([1]; 5mg/kg, day 13, individual rats, 5 mg/kg): 326 g and 364 g and 373 g and 348 g and 336 g and 386 g
body weight of rat in g in particular day ([1]; 5mg/kg, day 15, individual rats, 5 mg/kg): 327 g and 363 g and 377 g and 350 g and 334 g and 384 g
body weight of rat in g in particular day ([1]; 5mg/kg, day 17, individual rats, 5 mg/kg): 326 g and 362 g and 384 g and 348 g and 331 g and 386 g
body weight of rat in g in particular day ([1]; 5mg/kg, day 19, individual rats, 5 mg/kg): 327 g and 356 g and 377 g (2×) and 349 g and 333 g
body weight of rat in g in particular day ([1]; 5mg/kg, day 21, individual rats, 5 mg/kg): 314 g and 353 g and 370 g and 334 g and 328 g and 367 g
body weight of rat in g in particular day ([1]; 5mg/kg, day 23, individual rats, 5 mg/kg): 310 g and 355 g and 373 g and 342 g and 328 g and 365 g
body weight of rat in g in particular day ([1]; 5mg/kg, day 25, individual rats, 5 mg/kg): 315 g and 357 g and 378 g and 348 g and 325 g and 370 g
change of body weight ([1]; 5mg/kg): -56 g/25days and -87 g/25days and -63 g/25days and -58 g/25days and -40 g/25days and -61 g/25days
temperature after administration ([2]; hour 1): 37.56 ⚬C and 36.75 ⚬C and 37.32 ⚬C and 36.19 ⚬C and 36.67 ⚬C and 36.9 ⚬C
temperature after administration ([2]; hour 2): 36.89 ⚬C and 36.98 ⚬C and 36.3 ⚬C (2×) and 37.12 ⚬C and 35.67 ⚬C
temperature after administration ([2]; hour 3): 36.21 ⚬C and 36.64 ⚬C and 36.08 ⚬C and 35.74 ⚬C and 36.23 ⚬C and 35.01 ⚬C
temperature after administration ([2]; hour 4): 36.66 ⚬C and 36.98 ⚬C and 36.64 ⚬C and 35.41 ⚬C and 35.89 ⚬C and 36.48 ⚬C
temperature after administration ([2]; hour 5): 37 ⚬C and 36.98 ⚬C and 36.95 ⚬C and 36.08 ⚬C and 36.45 ⚬C and 36.9 ⚬C
temperature after administration ([2]; hour 6): 37.34 ⚬C and 36.75 ⚬C and 36.87 ⚬C and 36.44 ⚬C and 36.59 ⚬C and 36.9 ⚬C
temperature after administration ([2]; hour 7): 36.77 ⚬C and 36.64 ⚬C (2×) and 36.19 ⚬C and 36.78 ⚬C and 36.45 ⚬C
temperature after administration ([2]; hour 8): 37 ⚬C and 36.53 ⚬C and 36.75 ⚬C and 36.42 ⚬C and 36.67 ⚬C and 36.78 ⚬C
temperature after administration ([2]; hour 9): 37.34 ⚬C and 36.42 ⚬C and 36.64 ⚬C and 36.98 ⚬C and 36.78 ⚬C and 36.67 ⚬C
temperature after administration ([2]; hour 10): 37.34 ⚬C and 36.5 ⚬C and 36.87 ⚬C and 36.53 ⚬C and 36.67 ⚬C and 37.01 ⚬C
temperature after administration ([2]; hour 11): 37 ⚬C and 36.64 ⚬C and 36.08 ⚬C and 37.09 ⚬C and 36.67 ⚬C and 36.56 ⚬C
temperature after administration ([2]; hour 12): 37 ⚬C and 36.53 ⚬C (2×) and 36.87 ⚬C and 36.56 ⚬C and 37.35 ⚬C
temperature after administration ([2]; hour 13): 37.22 ⚬C and 37.09 ⚬C and 36.75 ⚬C and 36.64 ⚬C and 36.56 ⚬C and 36.67 ⚬C
temperature after administration ([2]; hour 14): 37.34 ⚬C and 36.42 ⚬C (3×) and 36.78 ⚬C and 37.12 ⚬C
temperature after administration ([2]; hour 15): 37.34 ⚬C and 36.53 ⚬C (2×) and 36.08 ⚬C and 36.56 ⚬C and 36.45 ⚬C
temperature after administration ([2]; hour 16): 37.34 ⚬C and 37.09 ⚬C and 36.64 ⚬C and 35.97 ⚬C and 36.34 ⚬C and 36.56 ⚬C
temperature after administration ([2]; hour 17): 37 ⚬C and 37.09 ⚬C and 36.53 ⚬C and 36.67 ⚬C and 36.45 ⚬C and 37.23 ⚬C
temperature after administration ([2]; hour 18): 37.45 ⚬C and 36.53 ⚬C and 36.3 ⚬C and 37.21 ⚬C and 36.56 ⚬C and 36.34 ⚬C
temperature after administration ([2]; hour 19): 36.6 ⚬C and 36.75 ⚬C and 36.53 ⚬C and 36.3 ⚬C and 36.67 ⚬C (2×)
temperature after administration ([2]; hour 20): 37.22 ⚬C and 37.32 ⚬C and 36.19 ⚬C and 35.97 ⚬C and 36.56 ⚬C and 36.23 ⚬C
temperature after administration ([2]; hour 21): 37.45 ⚬C and 36.08 ⚬C (2×) and 36.19 ⚬C and 36.78 ⚬C and 36.12 ⚬C
temperature after administration ([2]; hour 22): 36.77 ⚬C and 36.3 ⚬C and 35.86 ⚬C and 36.08 ⚬C and 36.45 ⚬C and 36.12 ⚬C
temperature after administration ([2]; hour 23): 36.89 ⚬C and 36.3 ⚬C and 36.19 ⚬C and 36.53 ⚬C and 36.34 ⚬C and 36.23 ⚬C
temperature after administration ([2]; hour 24): 36.66 ⚬C and 36.64 ⚬C and 36.3 ⚬C and 36.19 ⚬C and 36.78 ⚬C and 35.89 ⚬C
effect on core temperature (in words) ([2]; obese rats, 5 mg/kg b.w. ip, vs obese control): No significant effects on core temperature

N=C(N)N/N=C/c1c(Cl)cccc1Cl [Guanabenz]
Amount of calories consumed [3]: ↓ [17]
Blood pressure after one administration [4]: Change [17]
Intrinsic activity at TAAR1 (TAAR1): Agonist [48]
